Measurements published in patent publication US20230114241A1, “METHODS OF TREATING EPILEPSY USING THE SAME” (Trevena, Inc., priority 2019, published 2023).

Assays:
[1] = system: peripheral blood lymphocytes; assay: Lymphopenia: peripheral blood lymphocyte counts, acute and chronic s.c. dosing; assay type: in vivo; conditions: c57bl/6 mice; for Lymphopenia effect (change in peripheral blood lymphocytes): vs vehicle
Protocol: Compounds were tested for changes in peripheral blood lymphocytes in C57bl/6 mice. In acute studies, animals (n=5/group) were dosed subcutaneously with test compound at a dose of 3 mg/kg. Animals were sacrificed at specific time points and […] of whole blood was collected in EDTA (K2) Eppendorf tubes. Blood was stored on ice and shipped immediately overnight delivery to Charles River Laboratories for analysis. CRL ran samples through their WBC/differential panel on an Advia 120 instrument. We received peripheral lymphocyte counts (10^3 cells/μl) for each blood sample. Treatment group means were compared to a vehicle treatment group for statistical significance. In chronic studies, animals (n=6-8/group) were dosed subcutaneously for three to seven days with test compound at doses that were at least 5-fold higher than the efficacious dose in pharmacology/behavioral assays. On the last day, animals were sacrificed 45 minutes to 6 hrs after the final dose. Whole blood was collected and analyzed as described for acute studies. […]

[2] = target: T1, human sphingosine-1-phosphate receptor 1 (S1P1) (Homo sapiens, UniProt P21453); assay: Inhibition of cAMP production (HTRF cAMP HiRange), S1P1 CHO-K1 cells; assay type: cell-based; conditions: for EC50: read-out: hS1P1 CAMP pEC50 (converted); for Emax: CHO-K1, efficacy normalized to maximum efficacy of fingolimod, read-out: hS1P1 CAMP SPAN
Summary of the method: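 CHO-K1 cells co-expressing human S1P1 (C-terminal ProLink tag) and EA-β-arrestin2, plated overnight; after 30 min compound incubation at 37 °C, intracellular cAMP measured by HTRF TR-FRET following 1 h at room temperature. Values normalized to fingolimod.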
Target sequence in this assay (P21453 whole entry): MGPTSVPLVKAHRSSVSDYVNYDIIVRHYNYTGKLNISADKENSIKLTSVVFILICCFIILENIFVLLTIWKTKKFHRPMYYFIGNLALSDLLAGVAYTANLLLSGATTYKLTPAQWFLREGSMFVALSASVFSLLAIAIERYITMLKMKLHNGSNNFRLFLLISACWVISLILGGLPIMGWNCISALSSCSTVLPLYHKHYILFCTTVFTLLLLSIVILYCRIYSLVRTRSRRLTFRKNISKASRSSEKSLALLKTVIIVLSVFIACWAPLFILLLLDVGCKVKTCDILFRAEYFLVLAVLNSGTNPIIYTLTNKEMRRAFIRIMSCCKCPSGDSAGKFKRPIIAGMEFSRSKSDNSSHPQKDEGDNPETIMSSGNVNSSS

[3] = target: T1, human sphingosine-1-phosphate receptor 1 (S1P1); assay: β-Arrestin2 recruitment assay (PathHunter), S1P1 CHO-K1 cells; assay type: cell-based; conditions: for Emax: efficacy normalized to maximum efficacy of fingolimod, read-out: hS1P1 B-arrestin2 SPAN; for EC50: β-arrestin2 recruitment, read-out: hS1P1 B-arrestin2 pEC50 (converted)
Summary of the method: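 CHO-K1 cells co-expressing EA-β-arrestin2 and ProLink-tagged human S1P1 plated overnight, then stimulated 60 min at 37 °C. Enzyme-fragment complementation (β-galactosidase) detected after 1 h at room temperature by luminescence; values normalized to fingolimod.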
Target sequence in this assay (P21453 whole entry): as above
Target sequence in this assay (P32121 whole entry partner): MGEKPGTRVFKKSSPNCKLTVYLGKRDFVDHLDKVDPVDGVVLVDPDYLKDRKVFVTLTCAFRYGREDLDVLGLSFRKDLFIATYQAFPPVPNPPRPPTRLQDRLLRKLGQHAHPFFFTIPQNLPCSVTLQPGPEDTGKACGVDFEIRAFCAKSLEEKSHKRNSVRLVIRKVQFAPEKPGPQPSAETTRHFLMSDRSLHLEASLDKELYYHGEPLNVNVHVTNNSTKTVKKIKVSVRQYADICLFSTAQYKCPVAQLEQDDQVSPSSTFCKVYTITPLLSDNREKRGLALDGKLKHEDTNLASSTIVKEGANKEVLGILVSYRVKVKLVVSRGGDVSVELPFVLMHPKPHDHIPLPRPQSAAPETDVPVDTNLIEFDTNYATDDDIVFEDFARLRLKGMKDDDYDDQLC

[4] = target: sphingosine-1-phosphate receptor 5 (S1P5) (Homo sapiens, UniProt Q9H228); assay: Selectivity: inhibition of cAMP production (HTRF), S1P5 CHO-K1 cells; assay type: cell-based; conditions: for Emax: CHO-K1, efficacy normalized to maximal efficacy of fimgolimod, read-out: hS1P5 cAMP SPAN; for EC50: inhibition of cAMP production, read-out: hS1P5 cAMP pEC50 (converted)
Protocol: (§1) Cell Culturing and Assay Plating Cell lines were cultured in AssayComplete™ Media 6 (DiscoverX Corporation, Cat #: 920018GF2) at 37° C. and 5% CO2 in a humidified CO2 and temperature-controlled incubator. To begin assay plating, cells were washed with Dulbecco's phosphate buffered saline (CellGro, Cat #: 21-031-CV) and lifted from the culturing flask by incubation (37° C., 5 min) with CellStripper (Cellgro, Cat #: 25-056-CI). […] Plated cells were incubated overnight at 37° C. and 5% CO2 in a humidified CO2 and temperature-controlled incubator. Detecting Inhibition of cAMP Production
(§2) S1P3 and S1P5 Agonist-promoted G-protein responses were determined by measuring changes in intracellular cAMP using the HTRF® cAMP HiRange kit (CisBio, Cat #: 62AM6PEJ) based on time-resolved fluorescence resonance energy transfer (TR-FRET) technology. […] Following a 30-minute room temperature incubation the components of the cAMP HiRange kit were added as per the manufacturer's instructions. After an hour incubation at room temperature, plates were analyzed by a BMG PheraStar microplate reader.
(§3) These values are normalized to fimgolimod, a known agonist of the sphingosine-1-phosphate 3 and 5 receptor or CYM5520, a known agonist of the sphingosine-1-phosphate 2 receptor. The tables also include potency values (pEC50) for modulating discrete receptor-mediated activities (inhibition of cAMP production or inositol monophosphate accumulation).

[5] = target: human sphingosine-1-phosphate receptor 3 (S1P3) (Homo sapiens, UniProt Q99500); assay: Selectivity: inhibition of cAMP production (HTRF), S1P3 CHO-K1 cells; assay type: cell-based; conditions: for Emax: CHO-K1, efficacy normalized to maximal efficacy of fimgolimod, read-out: hS1P3 cAMP SPAN; for EC50: inhibition of cAMP production, read-out: hS1P3 cAMP pEC50 (converted)
Protocol: as §1, §2, §3

[6] = target: human sphingosine-1-phosphate receptor 2 (S1P2) (Homo sapiens, UniProt O95136); assay: Selectivity: inositol monophosphate production (IP-one), S1P2 CHO-K1 cells; assay type: cell-based; conditions: for Emax: CHO-K1, efficacy normalized to maximal efficacy of CYM5520, read-out: hS1P2 IP-one SPAN; for EC50: inositol monophosphate accumulation, read-out: hS1P2 IP-one pEC50 (converted)
Protocol: as §1
S1P2 Agonist-promoted G-protein responses were determined by measuring changes in intracellular inositol monophosphate using the IP-one TB kit (CisBio, Cat #: 62IPAPEJ) based on time-resolved fluorescence resonance energy transfer (TR-FRET) technology. AssayComplete™ Cell Plating 2 Reagent was removed and replaced with 1× IP-one stimulation buffer (as per manufacturer's instructions) along with test or control compounds at the desired concentrations.
Following a 60-minute incubation at 37° C. and 5% CO2 in a humidified CO2 and temperature-controlled incubator, the components of the IP-one TB kit were added as per the manufacturer's instructions. After an hour incubation at room temperature, plates were analyzed by a BMG PheraStar microplate reader.
as §3

[7] = inhibition of cAMP production, potency
[8] = inhibition of cAMP production, S1P1
[9] = CHO-K1, β-arrestin2 recruitment

human sphingosine-1-phosphate receptor 2 (S1P2), sequence (O95136 whole entry): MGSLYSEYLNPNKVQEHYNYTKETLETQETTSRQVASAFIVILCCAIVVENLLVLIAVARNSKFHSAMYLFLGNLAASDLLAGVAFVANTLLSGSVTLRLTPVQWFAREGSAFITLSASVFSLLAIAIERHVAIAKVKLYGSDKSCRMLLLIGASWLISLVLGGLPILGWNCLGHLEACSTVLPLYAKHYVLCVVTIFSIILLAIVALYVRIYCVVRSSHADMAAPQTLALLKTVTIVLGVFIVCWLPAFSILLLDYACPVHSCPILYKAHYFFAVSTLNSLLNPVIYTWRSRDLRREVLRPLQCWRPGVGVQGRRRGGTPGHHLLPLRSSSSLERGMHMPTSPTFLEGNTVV
human sphingosine-1-phosphate receptor 3 (S1P3), sequence (Q99500 whole entry): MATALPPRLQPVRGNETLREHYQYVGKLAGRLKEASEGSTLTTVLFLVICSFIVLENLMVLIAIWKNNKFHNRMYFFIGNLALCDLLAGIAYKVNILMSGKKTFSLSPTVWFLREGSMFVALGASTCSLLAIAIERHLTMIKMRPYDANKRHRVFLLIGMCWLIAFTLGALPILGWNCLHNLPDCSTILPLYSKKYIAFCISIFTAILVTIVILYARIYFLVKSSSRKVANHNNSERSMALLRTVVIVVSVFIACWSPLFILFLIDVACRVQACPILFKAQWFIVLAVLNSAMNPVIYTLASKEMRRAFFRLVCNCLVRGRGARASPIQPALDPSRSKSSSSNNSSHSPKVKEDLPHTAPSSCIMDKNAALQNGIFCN
sphingosine-1-phosphate receptor 5 (S1P5), sequence (Q9H228 whole entry): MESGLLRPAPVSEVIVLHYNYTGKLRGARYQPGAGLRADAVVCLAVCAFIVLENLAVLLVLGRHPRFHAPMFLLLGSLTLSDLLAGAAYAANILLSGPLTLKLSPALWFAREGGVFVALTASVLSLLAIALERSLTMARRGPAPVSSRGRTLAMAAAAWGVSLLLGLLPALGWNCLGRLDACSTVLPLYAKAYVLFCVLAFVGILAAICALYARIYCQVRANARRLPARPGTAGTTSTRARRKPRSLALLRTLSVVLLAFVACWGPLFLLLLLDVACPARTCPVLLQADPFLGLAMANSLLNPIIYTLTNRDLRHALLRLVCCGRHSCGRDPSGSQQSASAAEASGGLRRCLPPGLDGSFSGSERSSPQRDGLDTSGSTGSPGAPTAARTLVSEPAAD

## Cc1ccccc1-c1noc(-c2ccc3c(c2)nnn3C(C)C)n1 [Compound 293, 5-[3-(2-methylphenyl)-1,2,4-oxadiazol-5-yl]-1-(propan-2-yl)-1H-1,2,3-benzotriazole]
[1]; 6 mg/kg sc, 7 days
  Lymphopenia effect (peripheral blood lymphocytes): no change: 6 mg/kg, 7 days
[2]; [7]
  EC50: < 0.316 µM

## Cc1cnccc1-c1nc(-c2ccc3c(ccn3C(C)C)c2)no1 [Compound 142, 3-(1-isopropyl-1H-indol-5-yl)-5-(3-methylpyridin-4-yl)-1,2,4-oxadiazole]
[1]; 6 mg/kg sc, 7 days
  Lymphopenia effect (peripheral blood lymphocytes): no change: 6 mg/kg, 7 days
[2]; [7]
  EC50: < 0.316 µM

## CN1C(=O)CCc2cc(-c3nc(-c4cccnc4)no3)ccc21 [Compound 384, 1-methyl-6-[3-(pyridin-3-yl)-1,2,4-oxadiazol-5-yl]-1,2,3,4-tetrahydroquinolin-2-one]
[1]; 3 mg/kg sc, 45 min and 2 hr
  Lymphopenia effect (peripheral blood lymphocytes): no change: 3 mg/kg; 45 min and 2 hr
[2]
  Emax: > 75%
[2]; [8]
  EC50: > 0.316 µM
[3]; CHO-K1
  Emax: < 75%
[3]; S1P1
  EC50: > 10 µM

## CCC1(CC)CC(=O)c2cc(-c3nc(-c4cccnc4OC)no3)ccc2O1 [Compound 147, 2,2-diethyl-6-(3-(2-methoxypyridin-3-yl)-1,2,4-oxadiazol-5-yl)chroman-4-one]
[1]; 6 mg/kg sc, 7 days
  Lymphopenia effect (peripheral blood lymphocytes): no change: 6 mg/kg, 7 days
[2]; [7]
  EC50: < 0.316 µM

## CC(C)n1nnc2cc(-c3nc(-c4ccncc4C(F)(F)F)no3)ccc21 [Compound 455, 1-(propan-2-yl)-5-{3-[3-(trifluoromethyl)pyridin-4-yl]-1,2,4-oxadiazol-5-yl}-1H-1,2,3-benzotriazole]
[1]; 6 mg/kg sc, 7 days
  Lymphopenia effect (peripheral blood lymphocytes): no change: 6 mg/kg, 7 days
[2]; [8]
  EC50: < 0.316 µM

## CC(C)Nc1ccc(-c2ncc(-c3cccnc3)cn2)cc1C#N [Compound 737, 2-(isopropylamino)-5-(5-(pyridin-3-yl)pyrimidin-2-yl)benzonitrile]
[1]; 6 mg/kg sc, 7 days
  Lymphopenia effect (change in peripheral blood lymphocytes): −40% not stat sig: 6 mg/kg, 7 days

## CC(C)Nc1ccc(-c2nnc(-c3ccc4[nH]cnc4c3)o2)cc1C#N [Compound 356, 5-[5-(1H-1,3-benzodiazol-5-yl)-1,3,4-oxadiazol-2-yl]-2-[(propan-2-yl)amino]benzonitrile]
[1]; 6 mg/kg sc, 7 days
  Lymphopenia effect (peripheral blood lymphocytes): no change: 6 mg/kg, 7 days
[2]; [7]
  EC50: < 0.316 µM

## C=CCNc1ccc(-c2nc(-c3cn[nH]c3)no2)cc1C#N [Compound 252, 5-(3-(1H-pyrazol-4-yl)-1,2,4-oxadiazol-5-yl)-2-(allyl-amino)benzonitrile]
[2]; inhibition of cAMP production
  Emax: > 75%
[4]
  Emax: > 50%
  EC50: < 10 µM
[5]
  Emax: < 50%
  EC50: < 10 µM
[3]; [9]
  Emax: > 75%
[6]
  Emax: < 50%
  EC50: < 10 µM

## COc1cc(NC(C)=O)ccc1-c1noc(-c2ccc(NC(C)C)c(C#N)c2)n1 [Compound 731, N-[4-(5-{3-cyano-4-[(propan-2-yl)amino]phenyl}-1,2,4-oxadiazol-3-yl)-3-methoxyphenyl]acetamide]
[1]; 6 mg/kg sc, 7 days
  Lymphopenia effect (change in peripheral blood lymphocytes): −78% stat sig: 6 mg/kg, 7 days

## CC(C)n1nnc2cc(-c3nc4c(o3)Cc3ccccc3-4)ccc21 [Compound 219, 5-{8H-indeno[1,2-d][1,3]oxazol-2-yl}-1-(propan-2-yl)-1H-1,2,3-benzotriazole]
[2]; inhibition of cAMP production
  Emax: < 75%
[2]; [7]
  EC50: < 0.316 µM
[4]
  Emax: < 50%
  EC50: > 10 µM
[5]
  Emax: < 50%
  EC50: > 10 µM
[3]; [9]
  Emax: > 75%
[3]; potency
  EC50: < 10 µM
[6]
  Emax: < 50%
  EC50: < 10 µM

## CC(F)(F)CNc1ccc(-c2nnc(-c3ccc4[nH]cnc4c3)o2)cc1C#N [Compound 520, 5-[5-(1H-1,3-benzodiazol-5-yl)-1,3,4-oxadiazol-2-yl]-2-[(2,2-difluoro-propyl)amino]benzonitrile]
[1]; 6 mg/kg sc, 7 days
  Lymphopenia effect (peripheral blood lymphocytes): no change: 6 mg/kg, 7 days
[2]; [8]
  EC50: < 0.316 µM

## Cc1ccccc1-c1noc(-c2ccc3c(c2)nnn3CC(C)C)n1 [Compound 96, 5-[3-(2-methylphenyl)-1,2,4-oxadiazol-5-yl]-1-(2-methylpropyl)-1H-1,2,3-benzotriazole]
[1]; 6 mg/kg sc, 7 days
  Lymphopenia effect (peripheral blood lymphocytes): no change: 6 mg/kg, 7 days
[2]; [7]
  EC50: < 0.316 µM

## C=CCNc1ccc(-c2nc(-c3ccc4sc(N)nc4c3)no2)cc1C#N [Compound 267, 2-(allylamino)-5-(3-(2-aminobenzo[d]thiazol-5-yl)-1,2,4-oxadiazol-5-yl)benzonitrile]
[2]; inhibition of cAMP production
  Emax: < 75%
[2]; [7]
  EC50: < 0.316 µM
[4]
  Emax: < 50%
  EC50: > 10 µM
[5]
  Emax: < 50%
  EC50: > 10 µM
[3]; [9]
  Emax: < 75%
[3]; potency
  EC50: < 10 µM
[6]
  Emax: < 50%
  EC50: > 10 µM

## CC(C)Oc1ccc(-c2nc(-c3ccc4c(c3)nnn4C(C)C)no2)cc1C#N [Compound 22, 2-isopropoxy-5-(3-(1-isopropyl-1H-benzo[d] [1,2,3]triazol-5-yl)-1,2,4-oxadiazol-5-yl)benzonitrile]
[1]; 3 mg/kg sc, 7 days
  Lymphopenia effect (peripheral blood lymphocytes): no change: 3 mg/kg, 7 days

## Cc1cnccc1-c1nc(-c2ccc3c(c2)nnn3C(C)C)no1 [Compound 8, 3-(1-isopropyl-1H-benzo[d][1,2,3]triazol-5-yl)-5-(3-methylpyridin-4-yl)-1,2,4-oxadiazole]
[1]; 6 mg/kg sc, 7 days
  Lymphopenia effect (peripheral blood lymphocytes): no change: 6 mg/kg, 7 days
[2]; [7]
  EC50: > 0.316 µM

## COc1ccccc1-c1nc(-c2ccc3c(ccn3C(C)C)c2)no1 [Compound 398, 3-(1-isopropyl-1H-indol-5-yl)-5-(2-methoxyphenyl)-1,2,4-oxadiazole]
[2]
  Emax: > 75%
[2]; [8]
  EC50: < 0.316 µM
[4]
  Emax: < 50%
  EC50: > 10 µM
[5]
  Emax: < 50%
  EC50: > 10 µM
[3]; CHO-K1
  Emax: > 75%
[3]; S1P1
  EC50: < 10 µM
[6]
  Emax: < 50%
  EC50: > 10 µM

## COc1cnccc1-c1nc(-c2ccc3c(ccn3C(C)C)c2)no1 [Compound 391, 3-(1-isopropyl-1H-indol-5-yl)-5-(3-methoxypyridin-4-yl)-1,2,4-oxadiazole]
[2]
  Emax: > 75%
[2]; [8]
  EC50: < 0.316 µM
[4]
  Emax: < 50%
  EC50: < 10 µM
[5]
  Emax: > 50%
  EC50: < 10 µM
[3]; CHO-K1
  Emax: > 75%
[3]; S1P1
  EC50: < 10 µM
[6]
  Emax: < 50%
  EC50: < 10 µM

## CCC1(CC)CC(=O)c2cc(-c3nc(-c4cccnc4)no3)ccc2O1 [Compound 103, 2,2-diethyl-6-[3-(pyridin-3-yl)-1,2,4-oxadiazol-5-yl]-3,4-dihydro-2H-1-benzopyran-4-one]
[1]; 6 mg/kg sc, 7 days
  Lymphopenia effect (peripheral blood lymphocytes): no change: 6 mg/kg, 7 days
[2]; [7]
  EC50: < 0.316 µM
